The subject of assay [1] is levodopa-induced dyskinesias. Put plainly: levodopa-induced dyskinesias in MPTP-treated common marmosets. In kind it is in vivo, common marmosets (callithrix jacchus). On the procedure: In order to investigate the efficacy of flibanserin in the treatment of levodopa-induced dyskinesias, experiments in a primate model of Parkinson's disease were performed. 6 common marmosets (callithrix jacchus) that developed chronical Parkinsonian motor deficits after MPTP administration were treated orally with levodopa plus carbidopa for 3 weeks according to the procedure described by Pearce et al. (1995). […] The severity of dyskinesias was measured by assessing the extent of choreic and dystonic movements in all parts of the body.

Assay [2] has as its system cultured dopaminergic cells (from fetal rat mesencephalic tissue). Description: survival of cultured dopaminergic cells exposed to 6-hydroxydopamine. In kind it is cell-based. The conditions noted are these: toxin (6-hydroxydopamine) co-administered with flibanserin. As for the experimental part:
The reason of developing Parkinson's disease is a chronic process leading to a loss of dopaminergic neurons in a certain area of the EPS (substantia nigra). That process may be simulated in an experiment using cultured dopaminergic cells (from fetal rat mesencephalic tissue) which are exposed to a selective toxin (6-hydroxydompamine). The experiments were conducted in accordance with the method of Michel and Hefti, 1990. When the toxin was added to the cell culture medium the survival time of the neurons was markedly diminished. […] This indicates additionally neuroprotective properties of flibanserin. On the basis of these experiments it can be expected that patients treated with flibanserin will take benefit from said neuroprotective effect by slowing down or stopping the progression of the disease . Moreover, if flibanserin is given in early stages of the disease, a steady process leading to more severe stages may be postponed or even avoided. In particular, the occurrence of levodopa-induced dyskinesias can be prevented. In-so-far, a synergistic effect of the common administration of conventional anti-Parkinson drugs along with flibanserin in the treatment of Parkinson's disease is to be expected as increased “ON”-periods and decreased “OFF”-periods may be obtained.

For assay [3], the system named is tardive dyskinesias. Put plainly: persistent tardive dyskinesia model in baboons. The format is in vivo. The conditions noted are these: baboons with persistent tardive dyskinesia induced by a haloperidol derivative for 41 weeks. An excerpt:
The clinical appearance of levodopa-induced dyskinesias and of tardive dyskinesias are very often similar. […] dyskinesias are frequently observed in chronic schizophrenic patients after long-term treatment with neuroleptics. Recently an animal model of tardive dyskinesia was developed by Eyles at al. 2000. Persistent tardive dyskinesias were induced in 6 baboons by application of a derivative of haloperidol for 41 weeks until the animals developed abnormal orofacial signs that were consistent with tardive dyskinesia. These symptoms persisted during the drug-free period. The extent of dyskinesias was assessed by using a score derived fromt that applied in humans (Abnormal Involuntary Movement Scale). There was a significant improvement of dyskinesias by more than 50% after application of flibanserin. That means that flibanserin is also helpful in the treatment of tardive dyskinesia in chronic schizophrenic patients.

The subject of assay [4] is 5-HT inhibitory response (forskolin-stimulated cAMP accumulation). The conditions noted are these: rat cortex; read-out: reduced forskolin-stimulated cAMP accumulation (EC50); cited from earlier work. For orientation: cAMP levels reflect the balance of adenylyl cyclase and phosphodiesterase activity.
The target in assay [5] is 5-HT-induced PI turnover. Particulars: rat cortex; read-out: antagonized 5-HT-induced PI turnover (Ki); cited from earlier work.
The subject of assay [6] is rat cortical firing rate. Particulars: in vivo; cited from earlier work.

For `O=c1[nH]c2ccccc2n1CCN1CCN(c2cccc(C(F)(F)F)c2)CC1` [flibanserin, 2H-benzimidazol-2-one, 1,3-dihydro-1-(2-{4-[3-(trifluoromethyl)phenyl]-1-piperazinyl}ethyl)-], the “effect of levodopa on rigidity and bradykinesia” value in assay [1] (flibanserin in addition to levodopa) is on record as “not weakened”. Besides, the “severity of dyskinesias (extent of choreic and dystonic movements)” value in assay [1] (flibanserin in addition to levodopa, MPTP marmosets treated orally with levodopa plus carbidopa for 3 weeks) is on record as “significantly reduced said dyskinesias”. The “dyskinesia symptoms in monkeys with less severe dyskinesia” value in assay [1] (some of the monkeys with less severe dyskinesia) was “symptoms disappeared entirely”. Moreover, in assay [2], the “concentrations at which normal survival times were reached” value was in the range of 0.1 to 1 µM and the “survival time of neurons” value is on record as “increased in a concentration-dependent manner”. In addition, in assay [3], the “improvement of dyskinesias (score derived from Abnormal Involuntary Movement Scale)” value is reported as “more than 50%”. Also, the concentration giving a half-maximal response (EC50) in assay [4] was 913 nM. Also, the Ki in assay [5] was 113 nM. Moreover, the “inhibition of rat cortical firing rate” value in assay [6] is given as “dose-dependently inhibited rat cortical firing rate”.

In general, EC50 refers to the concentration giving half of the maximal effect. By Ki is commonly meant a dissociation constant, usually derived from enzyme kinetics or from competition with a known ligand.

The record behind these values is patent publication US8030314B2, “Use of 2h-benzimidazol-2-one, 1,3-dihydro-1-(2{4-[3-(trifluoromethyl)phenyl]-1-piperazinyl}ethyl)-and its physiologically acceptable acid addition salts” (priority 2001, dated 2011).
